The record followed here is patent US5644025A, “Tetrapeptides deriving from dalbaheptide antibiotics” (Gruppo Lepetit SPA, priority 1990, dated 1997).

Values after ≈ are worked out from the molar mass of the structure shown. Some results are limits rather than exact numbers.

What all share (assay): in vitro antibacterial activity, MIC by dilution test in microtiter
The test system of experiment [1] is Enterococcus faecalis ATCC 7,080. The experiment is classed as cell-based. Particulars: strain L 149; Mueller-Hinton broth, inoculum about 5×10^5 cfu/ml, 0.01% bovine serum albumin, 37° C., 18-24 hours. On the procedure: (§1) The in vitro antibacterial activity of the compounds is determined by means of standard […] tests in microtiter. Iso-Sensitest broth (Oxoid) is used for all bacteria except streptococci (Todd-Wewitt broth, Difco) and enterococci (Mueller-Hinton, Difco). Broth cultures are diluted so that the final inoculum is about 5×10^5 cfu/ml (colony forming units per ml). All broth microdilution MICs are performed in the presence of 0.01% bovine serum albumin (Pentax fraction V, Sigma).

Experiment [2] deals with S. aureus Smith. The experiment is classed as cell-based. To be noted: strain L 819; Iso-Sensitest broth, inoculum about 5×10^5 cfu/ml, 0.01% bovine serum albumin, 37° C., 18-24 hours. The procedure:
as §1

Experiment [3] has as its system S. aureus clin. isol. The experiment is classed as cell-based. To be noted: strain L 561; Iso-Sensitest broth, inoculum about 5×10^5 cfu/ml, 0.01% bovine serum albumin, 37° C., 18-24 hours. The procedure: as §1
Experiment [4] concerns S. epidermidis ATCC 12,228. The experiment is classed as cell-based. To be noted: strain L 147; Iso-Sensitest broth, inoculum about 5×10^5 cfu/ml, 0.01% bovine serum albumin, 37° C., 18-24 hours. On the procedure:
as §1

Experiment [5] concerns S. epidermidis clin. isol. Type of experiment: cell-based. To be noted: strain L 533; Iso-Sensitest broth, inoculum about 5×10^5 cfu/ml, 0.01% bovine serum albumin, 37° C., 18-24 hours. The procedure: as §1
The test system of experiment [6] is S. haemolyticus clin, isol. Type of experiment: cell-based. To be noted: strain L 602; Iso-Sensitest broth, inoculum about 5×10^5 cfu/ml, 0.01% bovine serum albumin, 37° C., 18-24 hours. The procedure: as §1
Experiment [7] has as its system Staph. aureus Tour. The experiment is classed as cell-based. Particulars: strain L 165; Iso-Sensitest broth, inoculum about 5×10^5 cfu/ml, 0.01% bovine serum albumin, 37° C., 18-24 hours. On the procedure:
as §1

Experiment [8] has as its system Strep. pneumoniae UC41. The experiment is classed as cell-based. Particulars: strain L 44; Todd-Wewitt broth, inoculum about 5×10^5 cfu/ml, 0.01% bovine serum albumin, 37° C., 18-24 hours. The procedure:
as §1

The test system of experiment [9] is Strep. pyogenes C203. Type of experiment: cell-based. Particulars: strain L 49; Todd-Wewitt broth, inoculum about 5×10^5 cfu/ml, 0.01% bovine serum albumin, 37° C., 18-24 hours. The procedure:
as §1

In experiment [10] the test system is E. faecalis clin. isol. Type of experiment: cell-based, Enterococcus faecalis. To be noted: for MIC: strain L 502, Mueller-Hinton broth, inoculum about 5×10^5 cfu/ml, 0.01% bovine serum albumin, 37° C., 18-24 hours. The procedure:
as §1

In general, MIC refers to the lowest concentration found to suppress growth. Regarding `N[C@H]1C(=O)N[C@@H]2Cc3ccc(c(Cl)c3)Oc3cc4cc(c3O)Oc3ccc(cc3Cl)[C@@H](O)[C@@H]3NC(=O)[C@H](NC(=O)[C@@H]4NC(=O)[C@@H](NC2=O)c2cc(O)cc(c2)Oc2cc1ccc2O)c1ccc(O)c(c1)-c1c(O)cc(O)cc1[C@@H](C(=O)O)NC3=O` [teicoplanin aglycon], the MIC in experiment [1] was found to be 0.13 µg/mL (≈ 0.108 µM); in experiment [2], 0.06 µg/mL (≈ 0.05 µM); in [3] it was 0.13 µg/mL (≈ 0.108 µM); in experiment [4], 0.06 µg/mL (≈ 0.05 µM); in experiment [5], 0.016 µg/mL (≈ 0.0133 µM); in experiment [6] it was 0.25 µg/mL (≈ 0.209 µM). The MIC in experiment [7] was 0.13 µg/mL (≈ 0.108 µM); in experiment [8], 0.13 µg/mL (≈ 0.108 µM); in experiment [9], 0.13 µg/mL (≈ 0.108 µM); in [10], > 128 µg/mL. The “activity against a clinical isolate of Enterococcus faecalis (in words)” value (“activity against a clinical isolate” below) in [10] was “resistant”.
With “(L-phenylalanyl)^3 -(D-lysyl)^15 -aglucoteicoplanin dalbaheptide methyl ester”, the MIC in [1] came to 0.5 µg/mL; in experiment [2], 0.13 µg/mL; in experiment [3], 0.06 µg/mL; in experiment [4], 0.13 µg/mL; in [5], 0.13 µg/mL; in experiment [6], 0.5 µg/mL. For the same molecule, the minimum inhibitory concentration (MIC) was determined as 0.13 µg/mL in experiment [7], 0.13 µg/mL in experiment [8], 0.25 µg/mL in experiment [9] and 16 µg/mL in [10]. In addition, in experiment [10], the “activity against a clinical isolate” value is reported as “surprisingly active”.
For the molecule teicoplanin, the MIC in [1] amounted to 0.13 µg/mL; in experiment [2], 0.25 µg/mL; in [3], 8 µg/mL; in experiment [4], 8 µg/mL; in experiment [5], 8 µg/mL; in experiment [6] it was 32 µg/mL. In addition, the minimum inhibitory concentration (MIC) in [7] was 0.13 µg/mL; in experiment [8], 0.13 µg/mL; in experiment [9] it was 0.13 µg/mL; in [10] it was > 128 µg/mL. For the same molecule, the “activity against a clinical isolate” value in experiment [10] is recorded as “resistant”.
